According to PMC8137473, “Preclinical trial of a MAP4K4 inhibitor to reduce infarct size in the pig: does cardioprotection in human stem cell-derived myocytes predict success in large mammals?” (Basic Research in Cardiology, 2021):

Columns and labels:
[1] = test system: heart-type fatty acid binding protein (hFABP); assay: efficacy study: plasma hFABP release (ELISA); format: in vivo, swine
Description: Next, an efficacy study was performed, in adherence to published guidelines for rigor and reproducibility, to evaluate the postulated benefit of DMX-10001 in a large-mammal model of MI. Briefly, 36 closed-chest swine (41 ± 2 kg) were subjected to regional ischemia by occluding the left anterior descending coronary artery (LAD) distal to the first diagonal branch for 60 min, followed by 24 h of reperfusion. Treatment with DMX-10001 (60 mg/kg/h for 0.5 h, followed by 17 mg/kg/h for 23.5 h) versus the vehicle was initiated 20 min prior to reperfusion and continued for 1 day. After 2 h of reperfusion, animals were allowed to recover from anesthesia. At 24 h of reperfusion, the infarct area (IA), area of no-reflow (NR), and area at ischemic risk (AAR) were determined. […] Heart-type fatty acid binding protein (hFABP) release was measured, as a biomarker that correlates with IS and NR in swine at least as well as cardiac troponin I [30]. […] Levels of DMX-10001 and DMX-5804 were determined by liquid chromatography–mass spectrometry (Pharmidex, London, UK). Porcine hFABP was analyzed as described: plasma samples were thawed on ice, diluted 10 × using the standard diluent provided with the kit, and analyzed by enzyme-linked immunosorbent assays according to the manufacturer’s instructions (Life Diagnostics, West Chester, PA). […]

porcine model of MI = assay: efficacy study: convertible ventricular fibrillation and defibrillation; set-up: species or system swine; conditions: in vivo
Description: Investigators involved in the experimental protocol and analysis of the data were blinded to the treatment status of each pig. Animals were randomly assigned to the treatment groups in two blocks, using a random number series generated online. To control further for potential investigator bias, inclusion and exclusion criteria were formulated prior to the onset of the study. Only healthy pigs weighing 38–48 kg, with a body temperature between 37.0 and 40.0 °C at the start of surgical preparation, were included. Exclusion criteria were: (i) Encountering ventricular fibrillation (VF) during the experimental protocol that could not be converted to sinus rhythm within 2 min. (ii) Encountering VF > 4 times before starting the drug or vehicle infusion. (iii) Developing progressive pump failure (mean arterial pressure (MAP) < 30 mmHg) during first 30 min of reperfusion. […]
The LAD was catheterized with a standard clinical guiding catheter (JL3.5, 6F, Medtronic, Minneapolis, MN), and quantitative coronary angiography (CAAS, PIE Medical, Maastricht, The Netherlands) was performed following 2 mg isosorbidedinitrate (Cedocard, Nycomed, Hoofddorp, The Netherlands) and using iodixanol as contrast agent (Visipaque™, GE Healthcare BV, Eindhoven, The Netherlands). […] Heart rate, aortic blood pressure, and ECG were monitored until 2 h of reperfusion.

- VF during drug infusion (porcine model of MI): did not occur
Compound: COCCOc1ccc(-c2cn(-c3ccccc3)c3ncn(COP(=O)(O)O)c(=O)c23)cc1 [DMX-10001]
- plasma level of hFABP ([1]; 60 min of reperfusion): 120 ± 19 ng/mL
- plasma level of hFABP ([1]; baseline): 8 ± 2 ng/mL
